Measurements: article PMC8298232 (Archives of Toxicology, 2021)
Where “and” joins values, the source holds several entries; their conditions need not be identical. Equal values may be shown once.

What was measured:
beagle dogs [1] = conditions: ref US EPA [2009]; cited from earlier work
animal studies = conditions: oral exposure, ref CIBA-GEIGY [1978], Kim et al. [2011a]; cited from earlier work
[2] = Kinetics of UV 328 and its metabolites in blood after single oral exposure of volunteers; format: in vivo, human
Procedure: Furthermore, blood samples were drawn from each volunteer 2, 4, 6, 8, 10, 24, […] 48 h after exposure. In summary, […] blood samples were collected from every volunteer. One volunteer donated two EDTA—Monovettes® (Sarstedt, Nümbrecht, Germany) for every time point. So, for every sampling time one sample was kept as whole blood while the plasma fraction was extracted for the other. In this case, the respective blood vessels were centrifuged at 800 × g for 5 min. The supernatants were transferred to 15 mL conical plastic tubes (Sarstedt, Nümbrecht, Germany). Both blood and plasma samples were stored frozen at − 50 °C until analysis.
Analysis of blood samples was performed according to a previously published method (Denghel and Göen [2021]). In summary, blood proteins and cellular components were precipitated by the addition of ACN. Afterwards, the supernatant was diluted with sodium chloride solution and the investigated analytes were extracted by dispersive liquid–liquid microextraction (DLLME) using a mixture of CH2Cl2 and ACN. […] Variation coefficients ranged from 2 to 9% for precision in series and from 3 to 11% for interday precision. Additionally, relative recovery rates between 80 and 100% were found.
The ln-transformed mean excretion curve was plotted against the time (in h) to obtain the slope (kel, elimination rate constant) and the excretion half-life (t1/2) as follows: t1/2=ln2/|kel|.

[3] = Medical laboratory values (liver, kidney, LDH, CK) of volunteers before, during and one week after oral exposure; format: in vivo, human; conditions: third subject, seven days after exposure; not attributed to the exposure by the investigators
Procedure: Because of potential confounding effects on those liver and kidney laboratory parameters and their potential to indicate massive cell destruction, lactate dehydrogenase (LDH) and creatinine kinase (CK) were included in the medical blood work as well. All medical laboratory values were carried out by an accredited medical laboratory. Thus, initial pathological laboratory values for liver or kidney function were defined as further exclusion criteria for study participation. In case of occurrence of relevant pathological medical values for liver or kidney function during the ongoing study which could be attributable to the study exposure, no further subjects were to be included until further clarification, potentially leading to a full cessation of the whole study.

[4] = Shares of conjugated analytes in urine (analysis with and without β-glucuronidase/arylsulfatase hydrolysis); conditions: for Conjugation ratio: with vs without hydrolysis
Procedure: The analysis of urine samples was performed with and without hydrolysis for one volunteer to determine the shares of analytes conjugated with glucuronic acid or sulfate. Initially, urine samples were thawed, equilibrated to room temperature and homogenized using a vortex mixer. Afterwards, the Monovettes® were centrifuged for 2 min at 1600 g to sediment solid residue in the sample. 1 mL of the sample was transferred into a 15 mL conical tube (Sarstedt, Nümbrecht, Germany). Without hydrolysis, 1 mL of the urine samples was prepared with 200 μL of ammonium acetate buffer (1 mol/L, pH 6) and 10 μL of the internal standard mix solution. […] Finally, the calculated analyte excretion rates (see Sect. “Evaluation of renal elimination”) obtained with hydrolysis were correlated with the ones prepared without hydrolysis for every detected compound. A linear curve fit was applied to the plotted data points. The resulting slope of the regression line described the percentage of free and therefore unconjugated analyte.
Therefore, urine samples of one volunteer were analyzed with and without addition of β-glucuronidase/arylsulfatase from Helix pomatia and incubation according to the standard procedure previously published (Denghel and Göen [2020]) (see Sect. “Analysis of urine samples without hydrolysis”).

[5] = Renal elimination kinetics of UV 328 and its metabolites in urine after single oral exposure; conditions: for REmax (maximum renal excretion rate): human urine with hydrolysis; for REmax (maximum renal excretion rate) / FUE after 24 h (urinary excretion factor as dose equivalents of UV 328) / FUE after 72 h ≙ Fraction of oral dose: mean ± SD; for share of cumulative amounts of all quantified analytes in urine: urine with hydrolysis, cumulative within 72 h; for Tmax / half-life: both, human, urine, po; for half-life: t½ (renal elimination half-life); for FUE after 24 h (urinary excretion factor as dose equivalents of UV 328): 0–24 h; for FUE after 72 h ≙ Fraction of oral dose: 0–72 h
Procedure: Three volunteers (two men and one person, mean age 37.3 ± 15.5, mean body weight 81.3 ± 6.1 kg) were selected for the in vivo study. Prior to oral exposure, every volunteer collected one urine sample. Additionally, one blood sample was taken using EDTA-Monovettes® (Sarstedt, Nümbrecht, Germany) before exposure. […] Thereby, a safety factor of 100 was considered for single application and interspecies differences, resulting in a dose of 0.3 mg/kg bw. […] Participants collected the total urine volume of each void separately throughout 72 h and recorded the respective sampling times. […] The urine samples were volumetrically measured for each sampling point, aliquoted in urine Monovettes® (Sarstedt, Nümbrecht, Germany) and stored frozen at − 50 °C until analysis.
The urine samples were processed according to a previously published procedure (Denghel and Göen [2020]). In brief, urine samples were enzymatically hydrolyzed using β-glucuronidase/arylsulfatase from Helix pomatia. […] The extracts were derivatized with BSA/TMCS and TSIM and finally measured via GC–MS/MS with advanced electron ionization (AEI).
Thereby, RE,i is the renal excretion rate for the urine sample i (in µg/h), ci is the analyte concentration in the urine sample (in µg/L), Vi is the volume of the urine sample (in L) and ti and ti-1 are the elapsed time values (in h) of the sample and the previous sample, respectively.
Afterwards, the time course of the excretion rates RE,i was recorded for the middle of the respective sampling period (ti,m in h) according to the equation: ti,m=ti-1+ti-ti-1/2.
The current excretion rates were plotted as a function of the average time of the respective sampling period for every volunteer and each analyte.
Finally, mean excretion curves were calculated by taking the average of related urinary sampling times and the corresponding renal excretion rates (in µg/h) for all volunteers’ samples (arithmetic mean ± standard deviation). The mean cumulative excreted amount (in µmol) of all volunteers was obtained by addition of each molar excreted amount: ∑i=0nci×Vi/M.
Thereby, ci is the concentration of the metabolite in urine (in µg/L), Vi is the volume of the respective urine sample (in L) and M is the molar mass of the respective metabolite (in µg/µmol).
Afterwards, excretion half-lives (t1/2) (in h) were ascertained as described in Sect. “Evaluation of blood kinetics” by plotting the current excretion rates as function of time.

beagle dogs [6] = conditions: ref ECHA [2013], Geigy [1970], Til et al. [1968]; cited from earlier work
rats = conditions: ref ECHA [2013], Geigy [1970], Til et al. [1968]; cited from earlier work
[7] = Distribution between blood compartments (plasma to blood ratio); format: in vivo, human
Procedure: Furthermore, blood samples were drawn from each volunteer 2, 4, 6, 8, 10, 24, 34 and 48 h after exposure. In summary, eight blood samples were collected from every volunteer. […] So, for every sampling time one sample was kept as whole blood while the plasma fraction was extracted for the other. In this case, the respective blood vessels were centrifuged at 800 × g for 5 min. The supernatants were transferred to 15 mL conical plastic tubes (Sarstedt, Nümbrecht, Germany). Both blood and plasma samples were stored frozen at − 50 °C until analysis.
Therefore, the concentrations of the analytes in whole blood and plasma were determined according to the SOP (Denghel and Göen [2021]) and an established procedure (see supplemental material), respectively. The results for whole blood and plasma were plotted against the time points of the respective sampling and the plasma to blood ratios (p/b) were calculated by a simplified approach for estimating the AUC ratios. Therefore, all plasma concentrations (in µg/L) determined were added and divided through the sum of the respective blood concentrations (in µg/L) according to the equation: p/b=∑i=0ncplasma/∑i=0ncblood.
Analysis of plasma samples
For the analysis of plasma samples, the procedure for blood samples was adjusted as follows: Initially, CPD plasma was equilibrated to room temperature and homogenized by manual shaking. Frozen samples of the study participants were thawed, equilibrated to room temperature, and homogenized using a vortex mixer. Aliquots of 1 mL were prepared with 10 µL of the internal standard mix. Afterwards, the plasma proteins were precipitated by the additions of 3 mL ACN with 0.1 % formic acid. The samples were vortex-blended for 1 min and centrifuged for 15 min at 3000 x g. The supernatants were transferred into 25 mL tubes with conical bottom (Sarstedt, Nümbrecht, Germany) and diluted with 4 mL of 1 % sodium chloride solution. Afterwards, a mixture of 800 µL CH 2Cl2 and 800 µL ACN was added to every tube. Again, the samples were vortex - blended for 1 min and centrifuged for 15 min at 3000 x g. The upper organic phases wer e transferred into 3 mL screw vials (Müller + Krempel AG, Bülach, Switzerland) and dried under nitrogen. The residues were derivatized with 90 µL BSA + 5 % TMCS. After 30 min reaction time at room temperature, 10 µL of 10 % TSIM were added. The samples wer e transferred to micro inserts, sealed with crimping caps, and incubated at 40 °C for 90 min. Finally, measurement was performed using GC -MS/MS

[8] = blood samples 8 h after exposure, without hydrolysis, n = 3
[9] = both sexes, human, in vivo, po, 0.3 mg/kg
[10] = both sexes, human, in vivo, po, 0.3 mg/kg, t1/2 (0–24 h) in blood
[11] = both sexes, human, in vivo, po, 0.3 mg/kg, t1/2 (24–48 h) in blood
[12] = both sexes, human, whole blood, po, 0.3 mg/kg bw, human whole blood, oral 0.3 mg UV 328/kg body weight, mean ± SD, n = 3
[13] = both sexes, human, whole blood, po, 0.3 mg/kg bw, human whole blood, oral 0.3 mg UV 328/kg body weight, n = 3, read-out: tmax in blood
[14] = human whole blood, oral 0.3 mg UV 328/kg body weight, mean ± SD, n = 3
[15] = both sexes, human, in vivo, po, tmax in blood
[16] = sum of plasma concentrations / sum of blood concentrations, one volunteer (n = 1)
[17] = both sexes, human, whole blood, po, 0.3 mg/kg, first elimination phase, human blood, oral 0.3 mg/kg bw, n = 3, read-out: t1/2 (0–24 h) in blood (converted)
[18] = both sexes, human, whole blood, po, 0.3 mg/kg, second elimination phase, human blood, oral 0.3 mg/kg bw, n = 3, read-out: t1/2 (24–48 h) in blood (converted)
[19] = 0.3 mg/kg, human urine, monophasic, oral 0.3 mg/kg bw, n = 3
[20] = post-dosage human urine, collected until 72 h

## CCC(C)(C)c1cc(-n2nc3ccccc3n2)c(O)c(C(C)(C)CC)c1 [UV 328, 2-(2H-Benzotriazol-2-yl)-4,6-di-tert-pentylphenol]
Beagle dogs [1]
  No Observed Adverse Effect Level (NOAEL): 30 mg UV 328/kg bw/day
Animal studies
  acute toxicity: No acute toxicity was observed
[2]; [8]
  share of all detected parameters in blood: 95.2 ± 2.0%
[2]; [9]
  concentration at 24 h: 83.1 ± 54.2 ng/mL
  concentration at 48 h: 29.1 ± 19.4 ng/mL
[2]; [10]
  half-life: 5.3 h
[2]; [11]
  half-life: 16.3 h
[2]; [12]
  Cmax: 736 ± 489 ng/mL
[2]; [13]
  Tmax: 8 h
[2]; [14]
  cmax in blood: 736.2 ± 488.7 µg/L
[3]
  CK value (creatinine kinase): 6784 U/L
[4]; urine of one volunteer
  share excreted via urine without conjugation to glucuronic acid or sulfate: about 84%
[4]; urine of one volunteer, slope = fraction of free analyte
  slope of the linear regression line (excretion rates without vs with hydrolysis): 0.84
[5]; oral 0.3 mg/kg bw, n = 3
  REmax (maximum renal excretion rate): 0.013 ± 0.003 µg/h
[5]; n = 3
  share of cumulative amounts of all quantified analytes in urine: 1.0 ± 0.1%
Beagle dogs [6]
  toxicity after repeated oral administration: specific target organ toxicity to liver and kidneys
rats
  toxicity after repeated oral administration: specific target organ toxicity to liver and kidneys

## CCC(C)(C)c1cc(C(C)(C)C(C)=O)cc(-n2nc3ccccc3n2)c1O [UV 328-4/3-CO, 2-(2H-benzotriazol-2-yl)-4-(2-methylbutan-3-on-2-yl)-6-(tert-pentyl)phenol]
[7]; human, in vivo
  p/b ratio (plasma to blood ratio): 3.2
[2]; [9]
  concentration at 24 h: 0.9 ± 0.3 ng/mL
[2]; [10]
  half-life: 8.3 h
[2]; [11]
  half-life: 16.4 h
[2]; [15]
  Tmax: 8 h
[4]; urine of one volunteer
  Conjugation ratio: 100%

## CC(=O)C(C)(C)c1cc(-n2nc3ccccc3n2)c(O)c(C(C)(C)C(C)O)c1 (centres unmarked) [UV 328-4/3-CO-6/3-OH, 2-(2H-benzotriazol-2-yl)-4-(2-methylbutan-3-on-2-yl)-6-(3-hydroxy-2-methylbutan-2-yl)phenol]
[7]; [16]
  p/b ratio (plasma to blood ratio): 2.0
[2]; [8]
  share among the quantified metabolites in blood: 13.7 ± 2.5%
[2]; both sexes, human, whole blood, oral, 0.3 mg/kg bw, human blood, plateau-shaped elimination curve, phase not specified, read-out: elimination half-life in blood
  half-life: > 600 h
[2]; [12]
  Cmax: 4.95 ± 0.72 ng/mL
[2]; [13]
  Tmax: 24 to 34 h
[2]; [17]
  half-life: < 600 h
[2]; [18]
  half-life: < 600 h
[2]; human blood, post-dosage
  time at which the plateau of blood levels was reached: around 10 h
[4]; urine of one volunteer
  Conjugation ratio: 100%
[5]; 0.3 mg/kg
  Tmax: 11.3 h
[5]; [19]
  half-life: 53.5 h
[5]; oral 0.3 mg/kg bw, n = 3
  REmax (maximum renal excretion rate): 0.65 ± 0.02 µg/h
[5]; human urine, n = 3
  FUE after 24 h (urinary excretion factor as dose equivalents of UV 328): 0.038 ± 0.010%
  FUE after 72 h ≙ Fraction of oral dose: 0.081% and 0.081 ± 0.018%
[5]; human urine, monophasic, oral 0.3 mg/kg bw, n = 3, 0.3 mg/kg
  t½ (renal elimination half-life): 53.3 h
[5]; [20]
  detection in urine samples after exposure: still detectable in urine after the observed period of 72 h
[5]; n = 3
  share of cumulative amounts of all quantified analytes in urine: 65.8 ± 10.9%

## CCC(C)(C)c1cc(C(C)(C)C(C)O)cc(-n2nc3ccccc3n2)c1O (centres unmarked) [UV 328-4/3-OH, 2-(2H-benzotriazol-2-yl)-4-(3-hydroxy-2-methylbutan-2-yl)-6-(tert-pentyl)phenol]
[7]; [16]
  p/b ratio (plasma to blood ratio): 2.1
[2]; [8]
  share among the quantified metabolites in blood: 19.5 ± 4.9%
[2]; [12]
  Cmax: 7.4 ± 0.9 ng/mL
[2]; [13]
  Tmax: 10 h
[2]; [17]
  half-life: 5.9 h
[2]; [18]
  half-life: 15.7 h
[2]; both sexes, whole blood, human blood, 24 h after oral 0.3 mg/kg bw, mean ± SD, n = 3, read-out: mean blood level 24 h after exposure
  concentration at 24 h: 1.5 ± 0.5 ng/mL
[2]; human whole blood, oral 0.3 mg UV 328/kg body weight, n = 3
  tmax in blood: 8 h
[4]; urine of one volunteer
  Conjugation ratio: 100%
[5]; 0.3 mg/kg
  Tmax: 9.3 h
[5]; [19]
  half-life: 46.4 h
[5]; oral 0.3 mg/kg bw, n = 3
  REmax (maximum renal excretion rate): 0.10 ± 0.04 µg/h
[5]; human urine, n = 3
  FUE after 24 h (urinary excretion factor as dose equivalents of UV 328): 0.004 ± 0.001%
  FUE after 72 h ≙ Fraction of oral dose: 0.007 ± 0.003%
[5]; n = 3
  share of cumulative amounts of all quantified analytes in urine: 6.1 ± 2.3%

## CCC(C)(C)c1cc(-n2nc3ccccc3n2)c(O)c(C(C)(C)C(C)=O)c1 [UV 328-6/3-CO, 2-(2H-benzotriazol-2-yl)-6-(2-methylbutan-3-on-2-yl)-4-(tert-pentyl)phenol]
[2]; human blood, plateau until 48 h after exposure
  plateau concentration in blood: ~0.1 µg/L
[2]; [14]
  cmax in blood: < LOQ
[5]; [20]
  detection in urine samples after exposure: not detected

## CCC(C)(C)c1cc(-n2nc3ccccc3n2)c(O)c(C(C)(C)C(C)O)c1 (centres unmarked) [UV 328-6/3-OH, 2-(2H-benzotriazol-2-yl)-6-(3-hydroxy-2-methylbutan-2-yl)-4-(tert-pentyl)phenol]
[7]; human, in vivo
  p/b ratio (plasma to blood ratio): 2.3
[2]; [9]
  concentration at 24 h: 5.2 ± 0.6 ng/mL
[2]; [10]
  half-life: 9 h
[2]; [11]
  half-life: 17.9 h
[2]; [15]
  Tmax: 8 h
[2]; both, human, in vivo, po
  tmax in blood: 10 h
[4]; human, in vivo
  share excreted via urine without conjugation to glucuronic acid or sulfate: about 3%
[4]; urine of one volunteer
  Conjugation ratio: 97%

## CCC(C)(C)c1cc(-n2nc3ccc(O)cc3n2)c(O)c(C(C)(C)CC)c1 [UV 328-BTOH, 2-(2H-5-hydroxybenzotriazol-2-yl)-4,6-(di-tert-pentyl)phenol]
[2]; human, in vivo, po, 0.3 mg/kg
  detection in blood samples after exposure: not detected
[5]; in vivo
  detection in urine samples after exposure: not detected
